Reference: ChEMBL document CHEMBL4321837, “Discovery of Potent and Orally Effective Dual Janus Kinase 2/FLT3 Inhibitors for the Treatment of Acute Myelogenous Leukemia and Myeloproliferative Neoplasms” (J Med Chem, 2019)
The source made the active and inactive calls. No cut-off for these calls is given here.

Tests used:
[1] = tested on: MDA-MB-231; test: Antiproliferative activity against human MDA-MB-231 cells assessed as reduction in cell growth after 72 hrs by MTT assay; type: functional, cell-based
[2] = target: Cytochrome P450 1A2 (Homo sapiens, UniProt P05177); test: Inhibition of CYP1A2 (unknown origin); type: ADME
[3] = tested on: MV4-11; test: Induction of apoptosis in human MV4-11 cells assessed as viable cells at 1.6 uM after 24 hrs by Annexin V FITC/PI staining based flow cytometry analysis (reference value: 96.3%); type: functional; details: MV4-11, 24 h, read-out: Activity
[4] = target: CDK6/cyclin D3 (Homo sapiens, UniProt Q00534); test: Inhibition of recombinant full length human CDK6/CyclinD3 using histone H1 as substrate incubated for 30 mins in presence of [gamma33P]-ATP by scintillation counting based radiometry assay; type: protein-complex assay
[5] = tested on: MV4-11; test: Antitumor activity against FLT3-ITD-positive human MV4-11 cells xenografted in NOD/SCID mouse assessed as tumor growth inhibition at 30 mg/kg, po qd for 14 days measured every 2 days for 14 days by caliper method relative to control; type: functional; details: MV4-11, po, read-out: TGI
[6] = tested on: MV4-11; test: Induction of apoptosis in human MV4-11 cells assessed as early apoptotic cells at 0.05 uM after 24 hrs by Annexin V FITC/PI staining based flow cytometry analysis (reference value: 2.14%); type: functional
[7] = target: Cytochrome P450 2E1 (Homo sapiens, UniProt P05181); test: Inhibition of CYP2E1 (unknown origin); type: ADME
[8] = tested on: MV4-11; test: Induction of apoptosis in human MV4-11 cells assessed as late apoptotic cells at 0.05 uM after 24 hrs by Annexin V FITC/PI staining based flow cytometry analysis (reference value: 1.38%); type: functional
[9] = target: Receptor-type tyrosine-protein kinase FLT3 (Homo sapiens, UniProt P36888, D835Y); test: Inhibition of recombinant human FLT3 D835Y mutant (564 to end residues) using EAIYAAPFAKKK as substrate incubated for 40 mins in presence of [gamma33P]-ATP by scintillation counting based radiometry assay
[10] = Half life in dog liver microsomes; type: ADME, Canis lupus familiaris, Microsome
[11] = tested on: MV4-11; test: Induction of cell cycle arrest in human MV4-11 cells assessed as accumulation at G0/G1 phase at 0.05 uM after 24 hrs by propidium iodide staining based flow cytometry analysis (reference value: 54.49%); type: functional
[12] = tested on: MV4-11; test: Induction of cell cycle arrest in human MV4-11 cells assessed as accumulation at S phase at 0.05 uM after 24 hrs by propidium iodide staining based flow cytometry analysis (reference value: 30.11%); type: functional
[13] = species on record: Homo sapiens; test: Inhibition of JAK2 V617F mutant/FLT3 in human SET2 cells assessed as reduction in FLT3 phosphorylation after 2 hrs by Western blot analysis; type: cell-based
[14] = target: Cytochrome P450 3A4 (Homo sapiens, UniProt P08684); test: Inhibition of CYP3A4 (unknown origin); type: ADME
[15] = tested on: MV4-11; test: Induction of apoptosis in human MV4-11 cells assessed as viable cells at 0.8 uM after 24 hrs by Annexin V FITC/PI staining based flow cytometry analysis (reference value: 96.3%); type: functional; details: MV4-11, 24 h, read-out: Activity
[16] = Tmax in Sprague-Dawley rat at 5 mg/kg, po measured up to 24 hrs by LC/MS/MS analysis; type: ADME, organism-based; details: in vivo, 24 h
[17] = species on record: Homo sapiens; test: Inhibition of JAK2 V617F mutant/FLT3 in human SET2 cells assessed as reduction in JAK2 phosphorylation at 0.2 uM after 2 hrs by Western blot analysis; type: cell-based
[18] = tested on: MV4-11; test: Inhibition of JAK2/FLT3 ITD mutant in human MV4-11 cells assessed as reduction in STAT5 phosphorylation at 0.2 uM after 2 hrs by Western blot analysis; type: cell-based
[19] = Toxicity in NOD/SCID mouse xenografted with FLT3-ITD-positive human MV4-11 cells assessed as animal survival at 30 to 60 mg/kg, po qd for 14 days; type: organism-based; details: in vivo
[20] = tested on: SET-2; test: Antiproliferative activity against human SET2 cells overexpressing JAK2 […] mutant assessed as reduction in cell growth after 72 hrs by MTT assay; type: functional, cell-based; details: SET-2, 72 h
[21] = target: Cytochrome P450 2D6 (Homo sapiens, UniProt P10635); test: Inhibition of CYP2D6 (unknown origin); type: ADME
[22] = target: Tyrosine-protein kinase Lyn (Homo sapiens, UniProt P07948); test: Inhibition of recombinant full length human LYN using poly(Glu, Tyr) 4:1 as substrate incubated for 40 mins in presence of [gamma33P]-ATP by scintillation counting based radiometry assay
[23] = tested on: MV4-11; test: Inhibition of JAK2/FLT3 ITD mutant in human MV4-11 cells assessed as reduction in FLT3 phosphorylation after 2 hrs by Western blot analysis; type: cell-based
[24] = tested on: MV4-11; test: Induction of cell cycle arrest in human MV4-11 cells assessed as accumulation at G2/M phase at 0.005 uM after 24 hrs by propidium iodide staining based flow cytometry analysis (reference value: 15.4%); type: functional
[25] = tested on: MV4-11; test: Induction of apoptosis in human MV4-11 cells assessed as early apoptotic cells at 0.8 uM after 24 hrs by Annexin V FITC/PI staining based flow cytometry analysis (reference value: 2.14%); type: functional
[26] = tested on: MV4-11; test: Inhibition of JAK2/FLT3 ITD mutant in human MV4-11 cells assessed as reduction in JAK2 phosphorylation at 0.2 uM after 2 hrs by Western blot analysis; type: cell-based
[27] = Terminal elimination half life in Sprague-Dawley rat at 5 mg/kg, po measured up to 24 hrs by LC/MS/MS analysis; type: ADME, organism-based; details: in vivo, 24 h
[28] = tested on: MV4-11; test: Induction of apoptosis in human MV4-11 cells assessed as necrotic cells at 1.6 uM after 24 hrs by Annexin V FITC/PI staining based flow cytometry analysis (reference value: 0.18%); type: functional
[29] = Anti-myelofibrosis activity against mouse BAF3(transformed) cells harboring with JAK2 V617F mutant allografted in NOD/SCID mouse assessed as reduction in liver weight at 60 mg/kg, po qd for 20 days measured on day 25 relative to control; type: functional
[30] = species on record: Homo sapiens; test: Inhibition of JAK2 V617F mutant/FLT3 in human SET2 cells assessed as reduction in STAT5 phosphorylation at 0.2 uM after 2 hrs by Western blot analysis; type: cell-based
[31] = tested on: HCT-116; test: Antiproliferative activity against human HCT116 cells assessed as reduction in cell growth after 72 hrs by MTT assay; type: functional, cell-based
[32] = target: Tyrosine-protein kinase Lck (Homo sapiens, UniProt P06239); test: Inhibition of recombinant human full length human LCK using KVEKIGEGTYGVV as substrate incubated for 40 mins in presence of [gamma33P]-ATP by scintillation counting based radiometry assay
[33] = Intrinsic clearance in human liver microsomes; type: ADME, Microsome
[34] = tested on: MDA-MB-453; test: Antiproliferative activity against human MDA-MB-453 cells assessed as reduction in cell growth after 72 hrs by MTT assay; type: functional, cell-based
[35] = tested on: SET-2; test: Antitumor activity against human SET2 cells overexpressing JAK2 V617F mutant xenografted in NOD/SCID mouse assessed as tumor growth inhibition at 60 mg/kg, po qd for 18 days measured every 2 days for 18 days by caliper method relative to control; type: functional; details: SET-2, po, read-out: TGI

Chain of Cytochrome P450 3A4 (P08684 whole entry): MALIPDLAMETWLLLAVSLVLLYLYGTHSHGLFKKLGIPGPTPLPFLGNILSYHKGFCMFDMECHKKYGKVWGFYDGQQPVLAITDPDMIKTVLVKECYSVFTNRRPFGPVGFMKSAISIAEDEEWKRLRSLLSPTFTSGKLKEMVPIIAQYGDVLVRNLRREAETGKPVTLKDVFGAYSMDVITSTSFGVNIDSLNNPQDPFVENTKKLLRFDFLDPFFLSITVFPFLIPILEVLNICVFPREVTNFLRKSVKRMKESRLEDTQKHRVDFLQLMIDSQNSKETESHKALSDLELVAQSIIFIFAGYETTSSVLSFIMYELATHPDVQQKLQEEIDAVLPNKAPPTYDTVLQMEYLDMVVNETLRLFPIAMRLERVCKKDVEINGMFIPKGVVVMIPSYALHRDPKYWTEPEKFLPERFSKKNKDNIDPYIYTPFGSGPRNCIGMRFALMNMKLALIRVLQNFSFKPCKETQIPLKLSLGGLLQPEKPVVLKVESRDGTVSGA
Chain of Tyrosine-protein kinase Lyn (P07948 whole entry): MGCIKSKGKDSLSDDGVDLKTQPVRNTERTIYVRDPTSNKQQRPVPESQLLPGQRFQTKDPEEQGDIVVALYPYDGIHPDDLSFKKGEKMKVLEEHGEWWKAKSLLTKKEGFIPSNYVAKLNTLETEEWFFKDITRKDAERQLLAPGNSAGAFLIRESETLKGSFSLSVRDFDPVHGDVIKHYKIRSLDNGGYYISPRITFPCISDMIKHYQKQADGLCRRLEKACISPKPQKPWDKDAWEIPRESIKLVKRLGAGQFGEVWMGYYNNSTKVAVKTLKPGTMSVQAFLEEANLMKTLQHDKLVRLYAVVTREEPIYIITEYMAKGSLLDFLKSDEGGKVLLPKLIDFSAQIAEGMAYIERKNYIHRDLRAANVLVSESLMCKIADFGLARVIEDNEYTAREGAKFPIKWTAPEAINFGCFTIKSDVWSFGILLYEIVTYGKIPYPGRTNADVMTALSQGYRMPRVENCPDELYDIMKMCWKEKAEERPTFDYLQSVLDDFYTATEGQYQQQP
Chain of Tyrosine-protein kinase Lck (P06239 whole entry): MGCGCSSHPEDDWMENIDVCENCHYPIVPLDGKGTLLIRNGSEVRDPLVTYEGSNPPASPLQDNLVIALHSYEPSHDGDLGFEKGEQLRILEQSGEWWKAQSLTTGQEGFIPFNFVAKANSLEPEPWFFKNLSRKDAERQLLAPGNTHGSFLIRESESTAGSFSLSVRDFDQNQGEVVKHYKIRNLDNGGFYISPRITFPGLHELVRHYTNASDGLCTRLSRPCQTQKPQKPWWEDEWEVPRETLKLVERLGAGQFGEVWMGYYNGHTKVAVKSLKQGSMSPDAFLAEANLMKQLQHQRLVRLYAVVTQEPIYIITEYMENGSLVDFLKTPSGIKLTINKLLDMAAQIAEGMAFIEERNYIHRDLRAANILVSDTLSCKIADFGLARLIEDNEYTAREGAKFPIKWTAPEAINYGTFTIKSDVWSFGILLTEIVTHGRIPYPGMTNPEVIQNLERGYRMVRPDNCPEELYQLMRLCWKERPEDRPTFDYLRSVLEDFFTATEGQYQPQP
Chain of Cytochrome P450 2D6 (P10635 whole entry): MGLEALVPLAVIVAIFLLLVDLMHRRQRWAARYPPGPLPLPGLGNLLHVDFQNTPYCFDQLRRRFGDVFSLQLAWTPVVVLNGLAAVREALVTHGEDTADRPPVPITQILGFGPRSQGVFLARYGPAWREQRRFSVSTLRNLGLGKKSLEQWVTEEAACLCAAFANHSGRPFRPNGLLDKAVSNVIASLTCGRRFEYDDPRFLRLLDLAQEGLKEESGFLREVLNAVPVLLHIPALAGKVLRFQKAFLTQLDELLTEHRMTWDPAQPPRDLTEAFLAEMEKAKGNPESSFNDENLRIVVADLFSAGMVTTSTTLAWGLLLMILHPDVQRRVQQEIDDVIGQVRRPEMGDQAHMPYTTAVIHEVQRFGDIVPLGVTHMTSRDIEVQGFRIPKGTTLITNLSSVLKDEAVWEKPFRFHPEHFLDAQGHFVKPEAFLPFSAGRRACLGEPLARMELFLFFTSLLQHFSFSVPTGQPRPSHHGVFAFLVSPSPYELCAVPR
Chain of Cytochrome P450 2E1 (P05181 whole entry): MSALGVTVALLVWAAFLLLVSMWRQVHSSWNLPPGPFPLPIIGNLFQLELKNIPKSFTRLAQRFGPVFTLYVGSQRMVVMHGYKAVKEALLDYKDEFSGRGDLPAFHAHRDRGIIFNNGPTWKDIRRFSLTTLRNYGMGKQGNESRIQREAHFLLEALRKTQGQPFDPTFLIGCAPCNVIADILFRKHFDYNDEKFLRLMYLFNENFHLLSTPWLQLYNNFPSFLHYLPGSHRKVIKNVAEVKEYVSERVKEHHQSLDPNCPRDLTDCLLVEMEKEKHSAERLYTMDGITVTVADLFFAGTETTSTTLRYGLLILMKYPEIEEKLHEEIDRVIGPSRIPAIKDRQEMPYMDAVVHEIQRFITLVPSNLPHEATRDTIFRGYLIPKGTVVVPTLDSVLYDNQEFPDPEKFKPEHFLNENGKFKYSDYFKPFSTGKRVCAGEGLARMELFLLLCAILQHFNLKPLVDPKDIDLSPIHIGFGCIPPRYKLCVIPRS
Chain of Cytochrome P450 1A2 (P05177 whole entry): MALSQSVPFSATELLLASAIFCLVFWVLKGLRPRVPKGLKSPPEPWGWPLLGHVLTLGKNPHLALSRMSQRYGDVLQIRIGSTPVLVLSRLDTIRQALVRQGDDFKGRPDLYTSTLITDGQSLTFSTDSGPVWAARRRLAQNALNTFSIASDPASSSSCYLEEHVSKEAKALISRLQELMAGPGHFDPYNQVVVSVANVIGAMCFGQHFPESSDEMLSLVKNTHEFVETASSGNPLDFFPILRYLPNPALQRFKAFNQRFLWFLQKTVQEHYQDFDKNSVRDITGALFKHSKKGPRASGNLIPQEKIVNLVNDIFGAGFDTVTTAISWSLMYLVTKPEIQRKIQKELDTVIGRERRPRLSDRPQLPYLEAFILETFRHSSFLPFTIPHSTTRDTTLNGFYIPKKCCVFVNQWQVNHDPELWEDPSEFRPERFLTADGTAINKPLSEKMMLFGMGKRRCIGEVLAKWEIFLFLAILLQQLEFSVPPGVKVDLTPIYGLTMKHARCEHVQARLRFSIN
Chain of CDK6/cyclin D3 (P30281 whole entry): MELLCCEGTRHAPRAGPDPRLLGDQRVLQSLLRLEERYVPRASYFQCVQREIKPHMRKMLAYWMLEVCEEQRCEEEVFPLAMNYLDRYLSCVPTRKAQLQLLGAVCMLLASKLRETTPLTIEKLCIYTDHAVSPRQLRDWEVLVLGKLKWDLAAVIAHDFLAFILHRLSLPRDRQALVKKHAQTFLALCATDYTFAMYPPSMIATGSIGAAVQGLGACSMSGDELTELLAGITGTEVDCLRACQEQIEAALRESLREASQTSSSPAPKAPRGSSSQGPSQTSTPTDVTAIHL
Chain of CDK6/cyclin D3 (Q00534 whole entry): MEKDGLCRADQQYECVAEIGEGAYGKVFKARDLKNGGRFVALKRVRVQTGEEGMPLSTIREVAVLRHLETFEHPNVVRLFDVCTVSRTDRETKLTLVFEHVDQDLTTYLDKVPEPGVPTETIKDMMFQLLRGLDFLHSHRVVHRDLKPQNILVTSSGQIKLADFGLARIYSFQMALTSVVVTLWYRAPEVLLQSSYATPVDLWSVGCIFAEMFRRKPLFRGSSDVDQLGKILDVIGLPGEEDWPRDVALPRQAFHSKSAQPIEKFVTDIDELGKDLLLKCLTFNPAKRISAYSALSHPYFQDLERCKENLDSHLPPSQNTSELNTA

Cc1cnc(Nc2ccc(N3CCC(N(C)CCO)CC3)c(F)c2)nc1-c1cnn(C(C)C)c1
Activity [1]: Active | IC50 [2]: 64400 nM | viability at 1.6 µM [3]: 24.9% | IC50 [4]: 66 nM | inhibition in vivo at 30 mg/kg [5]: 58% | Activity [6]: 5.53% | IC50 [7]: > 100000 nM | Activity [8]: 4.55% | IC50 [9]: 4 nM | half-life [10]: 3.12 h | Activity [11]: 81.64% | Activity [12]: 12.84% | inhibition [13]: Dose-dependent effect | IC50 [14]: > 100000 nM | viability at 0.8 µM [15]: 46.4% | Tmax [16]: 1.5 h | inhibition [17]: Active | inhibition [18]: Active | survival at 336 h [19]: 100% | IC50 [20]: 270 nM | IC50 [21]: > 100000 nM | IC50 [22]: 17 nM | inhibition [23]: Dose-dependent effect | Activity [24]: 15.4% | Activity [25]: 23.4% | inhibition [26]: Active | beta t1/2 [27]: 4.1 h | Activity [28]: 0.68% | inhibition in vivo at 60 mg/kg [29]: 94.3% | inhibition [30]: Active | Activity [31]: Active | IC50 [32]: 27 nM | CLH [33]: 2.4 µL/min/mg | Activity [34]: Active | inhibition in vivo at 60 mg/kg [35]: 85%
